Values of other authors in patent US8868172B2, “Methods and systems for recommending an appropriate action to a patient for managing epilepsy and other neurological disorders” (Cyberonics, Inc., priority 2005, dated 2014).
Read-outs that look alike come from different tables or passages of the source.

Columns and labels:
[1] = for plasma concentration average per daily dose of 1 mg/kg: long term therapy
[2] = test system: carbonic anhydrase
[3] = test system: rat hippocampal slices; conditions: 10-30 μg/mL
[4] = test system: GABA/benzodiazepine receptor ionophore complex; conditions: allosteric, no changes in chloride flux
[5] = test system: cultured mouse spinal cord neurons; conditions: 10-30 μg/mL
[6] = test system: dopaminergic and serotonergic neurotransmission; conditions: in vivo microdialysis
[7] = test system: T-type Ca^2+ currents; conditions: in vitro
[8] = test system: sodium channels; conditions: in vitro
[9] = not given; remark: listed apart in the source
[10] = per daily dose of 1 mg/kg of the drug itself

In the case of `CCC1(c2ccccc2)C(=O)NC(=O)NC1=O` [phenobarbital], the “plasma concentration of phenobarbital per daily dose of 1 mg/kg of primidone” value ([1]; long term therapy with primidone) is listed as “about 2 μg/ml” and the “plasma concentration average per daily dose of 1 mg/kg” value ([1]; adults, per daily dose of 1 mg/kg) is listed as “about 10 μg/ml”.

In the case of `NS(=O)(=O)Cc1noc2ccccc12` [zonisamide, 1,2-benzisoxazole-3-methanesulfonamide], the “carbonic anhydrase inhibiting activity” value [2] is given as “weak”, the “effect on neuronal or glial uptake of [3H]-GABA” value [3] is given as “without affecting” and the “binding to the GABA/benzodiazepine receptor ionophore complex” value [4] is given as “binds”. For the same compound, the “effect on postsynaptic GABA or glutamate responses” value [5] was “without affecting”, the “effect on synaptically-driven electrical activity” value [5] was “suppresses” and the “effect on dopaminergic and serotonergic neurotransmission” value [6] was “facilitates”. For the same compound, the “effect on voltage-dependent, transient inward currents (T-type Ca2+ currents)” value [7] was “reduces” and the “effect on sodium channels” value [8] was “blocks”.

In the case of `O=C1NC(=O)C(c2ccccc2)(c2ccccc2)N1` [Phenyloin, diphenylhydantoin], the “concentrations at which toxic effects such as nystagmus develop” value is given as “around 20 μg/ml” and the “concentrations at which chronic control of seizures is generally obtained” value [9] is given as “above 10 μg/ml”.

In the case of `CCC1(c2ccccc2)C(=O)NCNC1=O` [primidone, Primidone], the “plasma concentration average per daily dose of 1 mg/kg” value [1, 10] is given as “about 1 μg/ml”.

For `CCC1(C)CC(=O)NC1=O` (centres unmarked) [ethosuximide, Ethosuximide], the “plasma concentration average per daily dose of 1 mg/kg” value [1, 10] is given as “about 2 μg/ml”.
